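Following 48 hours of exposure in 96-well plates, responses at five concentrations were used to interpolate endpoints linearly. At the GI50, growth is halved. At the TGI there is no net growth.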

Some test systems named below: ACHN renal; MALME-3M melanoma; MDA-MB-435; MOLT-4 leukemia; NCI-H460 lung; SNB-19 CNS; SW-620 colon; TK-10 renal; U251 CNS; HOP-92 NSCLC.
Holding throughout (experiment): growth of human tumour cells (NCI), 48 h

Take `c1ccc(-c2cnc3nc4ccccc4nc3n2)cc1`: the TGI was 15.4 µM in the assay with ACHN renal; 15.8 µM in the assay with MALME-3M melanoma; 3.22 µM with MDA-MB-435; 43.1 µM in the assay with MOLT-4 leukemia; 13.3 µM in the assay on NCI-H460 lung; 32.7 µM in the assay on SNB-19 CNS. The TGI in the assay on SW-620 colon was 18 µM; in the assay on TK-10 renal it was 20.8 µM; with U251 CNS, 22.4 µM.
`COc1ccc(S(=O)(=O)n2c3ccccc3n3ncc(-c4nnc(C)o4)c23)cc1`: the GI50 was 0.567 µM with ACHN renal; 0.365 µM in the assay on HOP-92 NSCLC; 0.339 µM with MDA-MB-435; 0.502 µM in the assay on MOLT-4 leukemia; 0.425 µM in the assay with NCI-H460 lung; 0.766 µM with SNB-19 CNS. For the same compound, the figures for the GI50 with SW-620 colon, with TK-10 renal and in the assay with U251 CNS were 0.394 µM, 25.4 µM and 0.473 µM, respectively. Further, the TGI in the assay on ACHN renal is above 100 µM; in the assay on HOP-92 NSCLC, 57.3 µM; in the assay on MDA-MB-435, above 100 µM; in the assay with MOLT-4 leukemia, above 100 µM; with NCI-H460 lung, above 48.3 µM; in the assay on SNB-19 CNS, above 100 µM. Besides, the figures for the TGI in the assay with SW-620 colon, in the assay with TK-10 renal and with U251 CNS were above 100 µM, above 100 µM and above 65.5 µM, respectively.
With `O[C@H](CN1CC1)[C@@H](O)CN1CC1`, the GI50 with ACHN renal is 0.499 µM; with HOP-92 NSCLC it was 7.62 µM; in the assay on MDA-MB-435, 10.5 µM; with MOLT-4 leukemia it was 0.86 µM; in the assay with NCI-H460 lung, 0.496 µM; in the assay with SNB-19 CNS, 6.58 µM. Moreover, the GI50 was 4.61 µM in the assay with SW-620 colon, 21.3 µM in the assay on TK-10 renal and 5.78 µM in the assay with U251 CNS. In addition, the TGI in the assay with ACHN renal is 14.7 µM; in the assay with HOP-92 NSCLC, 67.9 µM; in the assay on MDA-MB-435 it was 29.8 µM; in the assay on MOLT-4 leukemia, above 100 µM; in the assay on NCI-H460 lung, 22.9 µM; in the assay with SNB-19 CNS it was above 100 µM. The TGI in the assay with SW-620 colon is above 100 µM; with TK-10 renal, 77.6 µM; in the assay on U251 CNS it was 45.6 µM.
Take `O=C(c1ccccc1)c1ccccc1C(=O)c1ccccc1`: the GI50 is 45.7 µM with ACHN renal; 16.4 µM in the assay with HOP-92 NSCLC; 28.7 µM with MDA-MB-435; 32.7 µM in the assay with MOLT-4 leukemia; 35.9 µM in the assay with NCI-H460 lung; above 100 µM with SNB-19 CNS. Further, the GI50 in the assay with SW-620 colon is 55.8 µM; with TK-10 renal it was 32.8 µM; in the assay on U251 CNS it was 39.4 µM. Besides, the TGI was above 100 µM with ACHN renal; 99.4 µM with HOP-92 NSCLC; above 100 µM in the assay with MDA-MB-435; above 100 µM in the assay on MOLT-4 leukemia; above 100 µM in the assay with NCI-H460 lung; above 100 µM in the assay on SNB-19 CNS. Further, the TGI in the assay with SW-620 colon, in the assay with TK-10 renal and in the assay with U251 CNS was above 100 µM throughout.
On to `CC(C)=CCC/C(C)=C/[C@H]1OC(=O)CC12C[C@H](O)C=CC2=O` (stereo not given in full), for which the GI50 with HOP-92 NSCLC was 1.21 µM; in the assay with MDA-MB-435, 0.458 µM; with NCI-H460 lung, 0.692 µM; in the assay with SNB-19 CNS, 1.36 µM; with SW-620 colon it was 0.446 µM; in the assay with TK-10 renal, 1.31 µM. Besides, the GI50 with U251 CNS is 0.752 µM. Besides, the TGI in the assay on HOP-92 NSCLC was 3.06 µM; in the assay with MDA-MB-435 it was 1.64 µM; in the assay on NCI-H460 lung, 2.21 µM; in the assay on SNB-19 CNS, 2.64 µM; in the assay on SW-620 colon it was above 100 µM; in the assay with TK-10 renal, 2.93 µM. In addition, the TGI in the assay with U251 CNS is 2.03 µM.
Take `Cc1ccc([N+](=O)[O-])cc1NC(=O)C(=O)C1CCC2=C(Sc3ccccc3N2)C1=O` (stereo not given): the TGI with ACHN renal, with HOP-92 NSCLC, in the assay with MDA-MB-435, with MOLT-4 leukemia, in the assay with NCI-H460 lung and with SNB-19 CNS was above 100 µM in each case. In addition, the TGI in the assay on SW-620 colon, in the assay with TK-10 renal and in the assay on U251 CNS was above 100 µM throughout.
Consider `O=C(O)c1cc2c(c3ccsc13)-c1ccccc1CC2`, for which the GI50 with ACHN renal was 36.6 µM; with HOP-92 NSCLC it was 30.3 µM; in the assay on MALME-3M melanoma, 18.8 µM; with MDA-MB-435 it was 42.7 µM; with NCI-H460 lung it was 33.2 µM; in the assay with SNB-19 CNS, 47 µM. Also, the values for the GI50 with SW-620 colon, in the assay on TK-10 renal and with U251 CNS were 40.2 µM, 30.3 µM and 36.8 µM, respectively. Also, the TGI was above 100 µM in the assay on ACHN renal; above 100 µM in the assay on HOP-92 NSCLC; 59.6 µM with MALME-3M melanoma; above 100 µM in the assay on MDA-MB-435; above 100 µM with NCI-H460 lung; above 100 µM in the assay with SNB-19 CNS. In addition, the TGI with SW-620 colon is above 100 µM; with TK-10 renal, 98.9 µM; with U251 CNS it was above 100 µM.
Turning to `CC(=O)NS(=O)(=O)c1ccc(-n2nc(-c3ccccc3)cc2C2=CC(=O)C=CC2=O)cc1`, the GI50 with ACHN renal is above 100 µM; in the assay on HOP-92 NSCLC, above 100 µM; in the assay on MDA-MB-435 it was above 100 µM; with MOLT-4 leukemia, 16.4 µM; with NCI-H460 lung it was above 100 µM; in the assay with SNB-19 CNS it was above 100 µM. Moreover, the GI50 in the assay with SW-620 colon was 36.6 µM; in the assay with TK-10 renal it was 75.4 µM; in the assay with U251 CNS, above 100 µM. The TGI is above 100 µM in the assay with ACHN renal; above 100 µM in the assay on HOP-92 NSCLC; above 100 µM in the assay with MDA-MB-435; 73.7 µM with MOLT-4 leukemia; above 100 µM in the assay on NCI-H460 lung; above 100 µM in the assay on SNB-19 CNS. In addition, the TGI with SW-620 colon, in the assay with TK-10 renal and in the assay with U251 CNS was above 100 µM throughout.
For the compound `O=C(Nc1ccccc1C(=O)Nc1nccs1)c1ccccc1`, the TGI in the assay on ACHN renal, in the assay with MALME-3M melanoma, in the assay with MDA-MB-435, in the assay on MOLT-4 leukemia, in the assay with NCI-H460 lung and in the assay on SNB-19 CNS was above 100 µM in each case. The TGI with SW-620 colon, in the assay on TK-10 renal and in the assay with U251 CNS was above 100 µM throughout.
As to `Cc1ccc(SCC(O)=C2C(=O)CCCC2=O)cc1`, the TGI in the assay on ACHN renal, in the assay on HOP-92 NSCLC, in the assay on MALME-3M melanoma, with MOLT-4 leukemia, in the assay with NCI-H460 lung and in the assay on SNB-19 CNS was above 100 µM in each case. Also, the TGI in the assay on SW-620 colon, with TK-10 renal and in the assay with U251 CNS was above 100 µM throughout.
Consider `C[C@@H](c1ccccc1)N(CC#N)C1CCC[C@H]1O` (stereo not given in full), for which the TGI in the assay on ACHN renal, in the assay with HOP-92 NSCLC, in the assay with MALME-3M melanoma, with MOLT-4 leukemia, in the assay on NCI-H460 lung and in the assay on SNB-19 CNS was above 100 µM each time. Moreover, the TGI in the assay on SW-620 colon, in the assay on TK-10 renal and in the assay with U251 CNS was above 100 µM throughout.
On to `Cc1ccc(/C=C2\CN(Cc3cn(CCNc4ccnc5cc(Cl)ccc45)nn3)C/C(=C\c3ccc(C)cc3)C2=O)cc1`, for which the GI50 in the assay with ACHN renal was 1.78 µM; in the assay with HOP-92 NSCLC it was 1.45 µM; in the assay on MALME-3M melanoma, 1.7 µM; with MDA-MB-435 it was 1.66 µM; with NCI-H460 lung it was 1.54 µM; with SNB-19 CNS, 1.82 µM. Further, the GI50 with TK-10 renal was 1.91 µM; in the assay with U251 CNS, 1.57 µM. Moreover, the TGI in the assay on ACHN renal stood at 3.25 µM; in the assay with HOP-92 NSCLC it was 3.01 µM; in the assay on MALME-3M melanoma, 3.47 µM; in the assay with MDA-MB-435, 3.1 µM; in the assay on NCI-H460 lung it was 3.38 µM; with SNB-19 CNS, 3.43 µM. For the same compound, the TGI was found to be 3.36 µM in the assay with TK-10 renal and 3.01 µM in the assay with U251 CNS.
Turning to `Cn1c(O)c(N=NC(N)=S)c2ccccc21`, the GI50 with ACHN renal is 51.2 µM; in the assay with HOP-92 NSCLC, 88 µM; in the assay with MDA-MB-435 it was above 100 µM; with MOLT-4 leukemia, above 100 µM; in the assay with NCI-H460 lung, 33.9 µM; in the assay with SNB-19 CNS, above 100 µM. For the same compound, the GI50 is 54.6 µM in the assay on SW-620 colon, above 100 µM in the assay with TK-10 renal and 46.7 µM with U251 CNS. The TGI in the assay on ACHN renal, with HOP-92 NSCLC, in the assay on MDA-MB-435, in the assay with MOLT-4 leukemia, with NCI-H460 lung and with SNB-19 CNS was above 100 µM throughout. Besides, the TGI in the assay with SW-620 colon, with TK-10 renal and with U251 CNS was above 100 µM throughout.
For `CC(C)N(Cc1ccccc1)S(=O)(=O)c1n[nH]c(C(C)(C)C)n1`, the TGI in the assay on ACHN renal, in the assay on HOP-92 NSCLC, in the assay with MALME-3M melanoma, with MDA-MB-435, with NCI-H460 lung and in the assay with SNB-19 CNS was above 100 µM throughout. Further, the TGI in the assay on SW-620 colon, in the assay with TK-10 renal and in the assay on U251 CNS was above 100 µM each time.
`CN/N=C(\C(=O)Nc1ccc([N+](=O)[O-])cc1[N+](=O)[O-])C1NC(=O)NC1=O` (stereo not given): the TGI in the assay on ACHN renal, in the assay with HOP-92 NSCLC, in the assay with MALME-3M melanoma, with MOLT-4 leukemia, in the assay on NCI-H460 lung and with SNB-19 CNS was above 100 µM each time. Further, the figures for the TGI in the assay on SW-620 colon, in the assay with TK-10 renal and in the assay on U251 CNS were above 100 µM, above 100 µM and 96.1 µM, respectively.
Turning to `O=C(O)c1oc2cccc3c2c1CCC3`, the TGI in the assay with ACHN renal, in the assay on HOP-92 NSCLC, in the assay on MALME-3M melanoma, in the assay with MOLT-4 leukemia, in the assay with NCI-H460 lung and in the assay with SNB-19 CNS was above 100 µM in each case. For the same compound, the TGI in the assay on SW-620 colon, with TK-10 renal and in the assay on U251 CNS was above 100 µM throughout.

Source of the values: PubChem BioAssay (NCI).
